{"source": "patent US9579347B2", "about": "“Methods for enhancing the effect of EGCg on mitigating skeletal muscle loss” (ABBOTT LABORATORIES, priority 2012, dated 2017)", "test_system": "serum-starved C2C12 myotubes", "test": "release of radiolabeled phenylalanine (total protein degradation) from serum-starved C2C12 myotubes", "type": "cell-based, murine", "conditions": "serum-free medium, 24 hours, vs serum (NC) and serum-free (NS) controls", "method": "The role of EGCg alone and EGCg in combination with zinc in preventing muscle protein degradation was evaluated in an in vitro cell-based assay using serum-starved C2C12 myotubes, i.e., differentiated, elongated murine myoblasts, which are routinely used to model adult skeletal myofibers in cell culture. This assay measured the release of radiolabeled phenylalanine (Phe) from myotubes in response to a catabolic stimulus. Under normal growth conditions in the presence of growth factors supplied by 2% horse serum, the myotubes actively incorporated the amino acid Phe into newly synthesized muscle proteins. This is shown as the negative control for proteolysis (NC) in lane 1 of FIG. 1, i.e., the serum control. In the absence of the 2% horse serum, specifically C2C12 cultured in a serum-free DMEM medium, the muscle proteins began to break down, and phenylalanine was subsequently released as a free amino acid. This is shown as the serum-free, positive control for proteolysis (NS) in lane 2 of FIG. 1. […] 10 μM EGCg was added to serum-free and serum-starved myotubes alone, i.e., lane 3 of FIG. 1.\nThe experiment was replicated 2 times where n=6 over the same period of time for each sample, i.e., 24 hours for each sample. Results are expressed as mean±S.E.M and statistical analysis between groups was determined by one-way ANOVA followed by Tukey's test."}
{"smiles": "O=S(=O)([O-])[O-].[Zn+2]", "note": "[zinc, zinc sulfate]", "values": [{"measurement": "total protein degradation (release of radiolabeled Phe)", "setting": "10 μM zinc sulfate alone, FIG. 2 lane 3", "result": "promoted or increased total protein degradation"}]}
{"smiles": "O=C(O[C@@H]1Cc2c(O)cc(O)cc2O[C@@H]1c1cc(O)c(O)c(O)c1)c1cc(O)c(O)c(O)c1", "note": "[EGCg, epigallocatechin gallate]", "values": [{"measurement": "total protein degradation (release of radiolabeled Phe)", "setting": "10 μM EGCg alone, FIG. 1 lane 3", "result": "greater inhibition of total protein degradation"}]}
